Laboratory results taken from patent US11066445B2, “Immunomodulators acting as antagonists of PD-1” (Bristol-Myers Squibb Company, priority 2017, dated 2021).
pIC50: −log10 of the molar value. Values belong to the compound of their own block, whether it stands above or below them. Starred links: 1 amine or outer side, 2 acyl side, 3 side chain; linkers in the order of their positions; H or OH if unused. Positions of bridges follow the written chain, without caps; N, C: chain ends. Non-standard residues stand in square brackets, D forms with d. Residues, ends and D or L forms follow the SMILES beside them. *: point of attachment. X3 = O=C(O)CCCCCCCCCCCCCCCCC(=O)N[C@@H](CCC(=O)NCCCOCCOCCOCCCN*)C(=O)O; Trp(1-CH2CONHSO2Me) = CS(=O)(=O)NC(=O)Cn1cc(C[C@H](N)C(=O)O)c2ccccc21; X1 = O=C(O)CCCCCCCCCCCCCCC(=O)N[C@@H](CCC(=O)NCCCOCCOCCOCCCN*)C(=O)O; Trp(4-aza,1-CH2COOH) = N[C@@H](Cc1cn(CC(=O)O)c2cccnc12)C(=O)O; Trp(7-aza,1-CH2COOH) = N[C@@H](Cc1cn(CC(=O)O)c2ncccc12)C(=O)O; Trp(1-CH2CO2Me) = COC(=O)Cn1cc(C[C@H](N)C(=O)O)c2ccccc21; X6 = COc1ccc2c(c1)c(C[C@H](N[*:1])C(=O)[*:2])cn2CC(=O)O; X2 = O=C(O)Cn1cc(C[C@@H](N[*:1])C(=O)[*:2])c2cccnc21; X4 = O=C(O)Cn1nc(C[C@H](N[*:1])C(=O)[*:2])c2ccccc21; d(cisHyp) = O=C(O)[C@H]1C[C@@H](O)CN1; Hyp = O=C(O)[C@@H]1C[C@@H](O)CN1; NMeNle = CCCC[C@H](NC)C(=O)O; NMeA = CN[C@@H](C)C(=O)O; Dab = NCC[C@H](N)C(=O)O; Dap = NC[C@H](N)C(=O)O; Sar = CNCC(=O)O

Molecular target: T1, PD-1-Ig binding to PD-L1-TVMV-His (PD-L1-His) (Homo sapiens, UniProt Q9NZQ7)
T1 construct: hPDL1(19-239)-TVMV-His; TVMV protease cleavage site (C); made in house; host or cells: HEK293T cells
Assay: PD-1/PD-L1 Homogenous Time-Resolved Fluorescence (HTRF) binding assay
Conditions: PD-1-Ig (20 nM) / PD-L1-His (10 nM); range classes; read-out: LE HTRF hPD1 hPDL1 IC50
Source text: Methods for Testing the Ability of Macrocyclic Peptides to Compete for the Binding of Pd-1 to Pd-L1 Using Homogenous Time-Resolved Fluorescence (HTRF) Binding Assays
The ability of the macrocyclic peptides of the present disclosure to bind to PD-L1 was investigated using a PD-1/PD-L1 Homogenous Time-Resolved Fluorescence (HTRF) binding assay.
Homogenous Time-Resolved Fluorescence (HTRF) Assays of Binding of Soluble PD-1 to Soluble PD-L1. Soluble PD-1 and soluble PD-L1 refers to proteins with carboxyl-end truncations that remove the transmembrane-spanning regions and are fused to heterologous sequences, specifically the Fc portion of the human immunoglobuling G sequence (Ig) or the hexahistidine epitope tag (His). All binding studies were performed in an HTRF assay buffer consisting of dPBS supplemented with 0.1% (w/v) bovine serum albumin and 0.05% (v/v) Tween-20. For the PD-1-Ig/PD-L1-His binding assay, inhibitors were pre-incubated with PD-L1-His (10 nM final) for 15 m in 4 μl of assay buffer, followed by addition of PD-1-Ig (20 nM final) in 1 μl of assay buffer and further incubation for 15 m. PD-L1 fusion proteins from either human, cynomologous macaques, mouse, or other species were used. HTRF detection was achieved using europium crypate-labeled anti-Ig monoclonal antibody (1 nM final) and allophycocyanin (APC) labeled anti-His monoclonal antibody (20 nM final). Antibodies were diluted in HTRF detection buffer and 5 μl was dispensed on top of binding reaction. The reaction was allowed to equilibrate for 30 minutes and signal (665 nm/620 nm ratio) was obtained using an EnVision fluorometer. Additional binding assays were established between PD-1-Ig/PD-L2-His (20 and 5 nM, respectively), CD80-His/PD-L1-Ig (100 and 10 nM, respectively) and CD80-His/CTLA4-Ig (10 and 5 nM, respectively). Binding/competition studies between biotinylated Compound No. 71 and human PD-L1-His were performed as follows. Macrocyclic peptide inhibitors were pre-incubated with PD-L1-His (10 nM final) for 60 minutes in 4 μl of assay buffer followed by addition of biotinylated Compound No. 71 (0.5 nM final) in 1 μl of assay buffer. Binding was allowed to equilibrate for 30 minutes followed by addition of europium crypated labeled Streptavidin (2.5 pM final) and APC-labeled anti-His (20 nM final) in 5 μl of HTRF buffer. The reaction was allowed to equilibrate for 30 m and signal (665 nm/620 nm ratio) was obtained using an EnVision fluorometer.
Recombinant Proteins. Carboxyl-truncated human PD-1 (amino acids 25-167) with a C-terminal human Ig epitope tag [hPD-1 (25-167)-3S-IG] and human PD-L1 (amino acids 18-239) with a C-terminal His epitope tag [hPD-L1(19-239)-tobacco vein mottling virus protease cleavage site (TVMV)-His] were expressed in HEK293T cells and purified sequentially by recombinant Protein A affinity chromatography and size exclusion chromatography. Human PD-L2-His (Sino Biologicals), CD80-His (Sino Biologicals), CTLA4-Ig (RnD Systems) were all obtained through commercial sources.
Ranges are as follows: A=0.010-0.060 μM; B=0.0011-0.009 μM; C=0.0003-0.0010 μM.

T1 sequence (Q9NZQ7 with tags, fused parts or gaps): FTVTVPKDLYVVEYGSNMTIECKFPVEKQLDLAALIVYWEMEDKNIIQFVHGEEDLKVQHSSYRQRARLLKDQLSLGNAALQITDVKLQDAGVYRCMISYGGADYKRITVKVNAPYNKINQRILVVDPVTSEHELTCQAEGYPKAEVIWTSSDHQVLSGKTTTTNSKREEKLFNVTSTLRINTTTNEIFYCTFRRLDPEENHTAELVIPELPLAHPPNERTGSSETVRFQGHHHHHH

SMILES: CCCC[C@H]1C(=O)N(C)[C@@H](CCCC)C(=O)N[C@@H](CC(C)C)C(=O)N[C@H](C(=O)NCC(=O)N[C@@H](CC(=O)NCCCOCCOCCOCCCNC(=O)CC[C@H](NC(=O)CCCCCCCCCCCCCCCCC(=O)O)C(=O)O)C(=O)O)CSCC(=O)N[C@@H](Cc2ccc(O)cc2)C(=O)N(C)[C@@H](C)C(=O)N[C@@H](CC(N)=O)C(=O)N2CCC[C@H]2C(=O)N[C@@H](CN)C(=O)N[C@@H](CC(C)C)C(=O)N2C[C@H](O)C[C@H]2C(=O)N[C@@H](Cc2c[nH]c3ccccc23)C(=O)N[C@@H](CCN)C(=O)N[C@@H](Cc2cn(CC(=O)O)c3ccc(OC)cc23)C(=O)N1C [Example 12] ({CH2CO}-Y[NMeA]NP[Dap]L[Hyp]W[Dab][X6][NMeNle][NMeNle]LCGD(X3)-OH; thioether N-14)
pIC50: 9.00 to 9.52

SMILES: CCCC[C@H]1C(=O)N(C)[C@@H](CCCC)C(=O)N[C@@H](CC(C)C)C(=O)N[C@H](C(=O)NCC(=O)N[C@@H](CC(=O)NCCCOCCOCCOCCCNC(=O)CC[C@H](NC(=O)CCCCCCCCCCCCCCCCC(=O)O)C(=O)O)C(=O)O)CSCC(=O)N[C@@H](Cc2ccc(O)cc2)C(=O)N(C)[C@@H](C)C(=O)N[C@@H](CC(N)=O)C(=O)N2CCC[C@H]2C(=O)N[C@@H](CN)C(=O)N[C@@H](CC(C)C)C(=O)N2C[C@H](O)C[C@H]2C(=O)N[C@@H](Cc2c[nH]c3ccccc23)C(=O)N[C@@H](CCN)C(=O)N[C@H](Cc2cn(CC(=O)O)c3ncccc23)C(=O)N1C [Example 14] ({CH2CO}-Y[NMeA]NP[Dap]L[Hyp]W[Dab][X2][NMeNle][NMeNle]LCGD(X3)-OH; thioether N-14)
pIC50: 7.22 to 8.00

SMILES: CCCC[C@H]1C(=O)N(C)[C@@H](CCCC)C(=O)N[C@@H](CC(C)C)C(=O)N[C@H](C(=O)NCC(=O)N[C@@H](CC(=O)NCCCOCCOCCOCCCNC(=O)CC[C@H](NC(=O)CCCCCCCCCCCCCCC(=O)O)C(=O)O)C(=O)O)CSCC(=O)N[C@@H](Cc2ccc(O)cc2)C(=O)N(C)[C@@H](C)C(=O)N[C@@H](CC(N)=O)C(=O)N2CCC[C@H]2C(=O)N[C@@H](CN)C(=O)N[C@@H](CC(C)C)C(=O)N2C[C@H](O)C[C@H]2C(=O)N[C@@H](Cc2c[nH]c3ccccc23)C(=O)N[C@@H](CCN)C(=O)N[C@@H](Cc2cn(CC(=O)OC)c3ccccc23)C(=O)N1C [Example 16] ({CH2CO}-Y[NMeA]NP[Dap]L[Hyp]W[Dab][Trp(1-CH2CO2Me)][NMeNle][NMeNle]LCGD(X1)-OH; thioether N-14)
pIC50: 8.05 to 8.96

SMILES: CCCC[C@H]1C(=O)N(C)[C@@H](CCCC)C(=O)N[C@@H](CC(C)C)C(=O)N[C@H](C(=O)NCC(=O)N[C@@H](CC(=O)NCCCOCCOCCOCCCNC(=O)CC[C@H](NC(=O)CCCCCCCCCCCCCCC(=O)O)C(=O)O)C(=O)O)CSCC(=O)N[C@@H](Cc2ccc(O)cc2)C(=O)N(C)[C@@H](C)C(=O)N[C@@H](CC(N)=O)C(=O)N2CCC[C@H]2C(=O)N[C@@H](CN)C(=O)N[C@@H](CC(C)C)C(=O)N2C[C@H](O)C[C@H]2C(=O)N[C@@H](Cc2c[nH]c3ccccc23)C(=O)N[C@@H](CCN)C(=O)N[C@@H](Cc2nn(CC(=O)O)c3ccccc23)C(=O)N1C [Example 17] ({CH2CO}-Y[NMeA]NP[Dap]L[Hyp]W[Dab][X4][NMeNle][NMeNle]LCGD(X1)-OH; thioether N-14)
pIC50: 8.05 to 8.96

SMILES: CCCC[C@H]1C(=O)N(C)[C@@H](CCCC)C(=O)N[C@@H](CC(C)C)C(=O)N[C@H](C(=O)NCC(=O)N[C@@H](CC(=O)NCCCOCCOCCOCCCNC(=O)CC[C@H](NC(=O)CCCCCCCCCCCCCCC(=O)O)C(=O)O)C(=O)O)CSCC(=O)N[C@@H](Cc2ccc(O)cc2)C(=O)N(C)[C@@H](C)C(=O)N[C@@H](CC(N)=O)C(=O)N2CCC[C@H]2C(=O)N[C@@H](CN)C(=O)N[C@@H](CC(C)C)C(=O)N2C[C@H](O)C[C@H]2C(=O)N[C@@H](Cc2c[nH]c3ccccc23)C(=O)N[C@@H](CCN)C(=O)N[C@@H](Cc2cn(CC(=O)O)c3ncccc23)C(=O)N1C [Example 19] ({CH2CO}-Y[NMeA]NP[Dap]L[Hyp]W[Dab][Trp(7-aza,1-CH2COOH)][NMeNle][NMeNle]LCGD(X1)-OH; thioether N-14)
pIC50: 8.05 to 8.96

Results, then the compound that gave them:

pIC50: 8.05 to 8.96
SMILES: CCCC[C@H]1C(=O)N(C)[C@@H](CCCC)C(=O)N[C@@H](CC(C)C)C(=O)N[C@H](C(=O)NCC(=O)N[C@@H](CC(=O)NCCCOCCOCCOCCCNC(=O)CC[C@H](NC(=O)CCCCCCCCCCCCCCCCC(=O)O)C(=O)O)C(=O)O)CSCC(=O)N[C@@H](Cc2ccc(O)cc2)C(=O)N(C)[C@@H](C)C(=O)N[C@@H](CC(N)=O)C(=O)N(C)CC(=O)N[C@@H](CN)C(=O)N[C@@H](CC(C)C)C(=O)N2C[C@H](O)C[C@@H]2C(=O)N[C@@H](Cc2c[nH]c3ccccc23)C(=O)N[C@@H](CCN)C(=O)N[C@@H](Cc2cn(CC(=O)OC)c3ccccc23)C(=O)N1C [Example 10] ({CH2CO}-Y[NMeA]N[Sar][Dap]L[d(cisHyp)]W[Dab][Trp(1-CH2CO2Me)][NMeNle][NMeNle]LCGD(X3)-OH; thioether N-14)

pIC50: 8.05 to 8.96
SMILES: CCCC[C@H]1C(=O)N(C)[C@@H](CCCC)C(=O)N[C@@H](CC(C)C)C(=O)N[C@H](C(=O)NCC(=O)N[C@@H](CC(=O)NCCCOCCOCCOCCCNC(=O)CC[C@H](NC(=O)CCCCCCCCCCCCCCC(=O)O)C(=O)O)C(=O)O)CSCC(=O)N[C@@H](Cc2ccc(O)cc2)C(=O)N(C)[C@@H](C)C(=O)N[C@@H](CC(N)=O)C(=O)N2CCC[C@H]2C(=O)N[C@@H](CN)C(=O)N[C@@H](CC(C)C)C(=O)N2C[C@H](O)C[C@H]2C(=O)N[C@@H](Cc2c[nH]c3ccccc23)C(=O)N[C@@H](CCN)C(=O)N[C@@H](Cc2cn(CC(=O)NS(C)(=O)=O)c3ccccc23)C(=O)N1C [Example 15] ({CH2CO}-Y[NMeA]NP[Dap]L[Hyp]W[Dab][Trp(1-CH2CONHSO2Me)][NMeNle][NMeNle]LCGD(X1)-OH; thioether N-14)

pIC50: 7.22 to 8.00
SMILES: CCCC[C@H]1C(=O)N(C)[C@@H](CCCC)C(=O)N[C@@H](CC(C)C)C(=O)N[C@H](C(=O)NCC(=O)N[C@@H](CC(=O)NCCCOCCOCCOCCCNC(=O)CC[C@H](NC(=O)CCCCCCCCCCCCCCC(=O)O)C(=O)O)C(=O)O)CSCC(=O)N[C@@H](Cc2ccc(O)cc2)C(=O)N(C)[C@@H](C)C(=O)N[C@@H](CC(N)=O)C(=O)N2CCC[C@H]2C(=O)N[C@@H](CN)C(=O)N[C@@H](CC(C)C)C(=O)N2C[C@H](O)C[C@H]2C(=O)N[C@@H](Cc2c[nH]c3ccccc23)C(=O)N[C@@H](CCN)C(=O)N[C@@H](Cc2cn(CC(=O)O)c3cccnc23)C(=O)N1C [Example 18] ({CH2CO}-Y[NMeA]NP[Dap]L[Hyp]W[Dab][Trp(4-aza,1-CH2COOH)][NMeNle][NMeNle]LCGD(X1)-OH; thioether N-14)

pIC50: 7.22 to 8.00
SMILES: CCCC[C@H]1C(=O)N(C)[C@@H](CCCC)C(=O)N[C@@H](CC(C)C)C(=O)N[C@H](C(=O)NCC(=O)N[C@@H](CC(=O)NCCCOCCOCCOCCCNC(=O)CC[C@H](NC(=O)CCCCCCCCCCCCCCC(=O)O)C(=O)O)C(=O)O)CSCC(=O)N[C@@H](Cc2ccc(O)cc2)C(=O)N(C)[C@@H](C)C(=O)N[C@@H](CC(N)=O)C(=O)N2CCC[C@H]2C(=O)N[C@@H](CN)C(=O)N[C@@H](CC(C)C)C(=O)N2C[C@H](O)C[C@H]2C(=O)N[C@@H](Cc2c[nH]c3ccccc23)C(=O)N[C@@H](CCN)C(=O)N[C@H](Cc2cn(CC(=O)O)c3ncccc23)C(=O)N1C [Example 20] ({CH2CO}-Y[NMeA]NP[Dap]L[Hyp]W[Dab][X2][NMeNle][NMeNle]LCGD(X1)-OH; thioether N-14)
